One block for each compound: values may come before it.
Assays:
[1] = biological target: T1, NACHT, LRR and PYD domains-containing protein 3 (Homo sapiens, UniProt Q96P20); assay: Inhibition of NLRP3 in human THP-1 cells assessed as reduction in IL-1beta production measured after 1 hrs by ELISA assay; type: cell-based
[2] = Oral bioavailability in Sprague-Dawley rat measured upto 24 hrs by LC-MS/MS analysis; type: ADME, organism-based; details: in vivo
[3] = biological target: T1, NACHT, LRR and PYD domains-containing protein 3; assay: Inhibition of NLRP3 in human THP-1 cells assessed as reduction in IL-1beta production pre incubated for 3 hrs followed by nigericin addition measured after 1 hrs by resazurin staining based assay; type: cell-based
[4] = biological target: NACHT, LRR and PYD domains-containing protein 3 (Mus musculus, UniProt Q8R4B8); assay: Inhibition of NLRP3 in LPS induced mouse BV-2 cells assessed as reduction in IL-1beta production pretreated for 30 mins followed by nigericin addition measured after 2 hrs by ELISA assay; type: cell-based
[5] = biological target: T1, NACHT, LRR and PYD domains-containing protein 3; assay: Inhibition of NLRP3 in human THP-1 cells assessed as reduction in IL-1beta production by AlphaLISA assay; type: cell-based
[6] = tested on: THP-1; assay: Induction of pyroptosis in human THP-1 cells; type: functional, cell-based
[7] = biological target: T1, NACHT, LRR and PYD domains-containing protein 3; assay: Inhibition of NLRP3 in human THP-1 cells assessed as reduction in IL-1beta production; type: cell-based
[8] = biological target: T1, NACHT, LRR and PYD domains-containing protein 3; assay: Inhibition of NLRP3 in human THP-1 cells assessed as reduction in caspase 1 level; type: cell-based
[9] = tested on: THP-1; assay: Induction of pyroptosis in human THP-1 cells by AlphaLisa assay; type: functional, cell-based
[10] = biological target: T1, NACHT, LRR and PYD domains-containing protein 3; assay: Inhibition of NLRP3 in human PBMC cells assessed as reduction in IL-1beta production preincubated for 30 mins followed by LPS addition measured after 6 hrs; type: cell-based
[11] = Inhibition of NLRP3 in PBMC cells (unknown origin) assessed as reduction in IL-1beta production measured after 2 hrs by ELISA assay; type: cell-based
[12] = Inhibition of NLRP3 in LPS induced PBMC (unknown origin) assessed as reduction in IL-1beta production preincubated 0.5 hrs followed by nigericin addition measured after 1 hrs by ELISA assay; type: cell-based
[13] = biological target: T1, NACHT, LRR and PYD domains-containing protein 3; assay: Inhibition of NLRP3 in human THP-1 cells assessed as reduction in IL-1beta production measured after 3 hrs by resazurin staining based assay; type: cell-based
[14] = biological target: T1, NACHT, LRR and PYD domains-containing protein 3; assay: Inhibition of NLRP3 in human THP-1 cells assessed as reduction in IL-1beta production by ELISA; type: cell-based
[15] = biological target: T1, NACHT, LRR and PYD domains-containing protein 3; assay: Inhibition of NLRP3 in human THP-1 cells assessed as reduction in IL-1beta production measured after 3 hrs by AlphaLISA assay; type: cell-based
[16] = biological target: T1, NACHT, LRR and PYD domains-containing protein 3; assay: Inhibition of NLRP3 in human PBMC cells assessed as reduction in TNF alpha level preincubated for 30 mins followed by LPS addition measured after 6 hrs; type: cell-based
[17] = biological target: T1, NACHT, LRR and PYD domains-containing protein 3; assay: Inhibition of NLRP3 (unknown origin) assessed as reduction of IL-1beta production
[18] = Lipophilicity, logP of the compound; type: physicochemical; details: octanol/water
[19] = biological target: T1, NACHT, LRR and PYD domains-containing protein 3; assay: Inhibition of NLRP3 in human THP-1 cells assessed as reduction in IL-1beta production measured after 3 hrs; type: cell-based
[20] = biological target: T1, NACHT, LRR and PYD domains-containing protein 3; assay: Inhibition of NLRP3 in LPS induced human PBMC cells assessed as reduction in IL-1beta preincubated for 30 mins followed by ATP addition measured after 1 hrs HTRF assay; type: cell-based

T1 sequence (Q96P20 whole entry, the tested form may be a part): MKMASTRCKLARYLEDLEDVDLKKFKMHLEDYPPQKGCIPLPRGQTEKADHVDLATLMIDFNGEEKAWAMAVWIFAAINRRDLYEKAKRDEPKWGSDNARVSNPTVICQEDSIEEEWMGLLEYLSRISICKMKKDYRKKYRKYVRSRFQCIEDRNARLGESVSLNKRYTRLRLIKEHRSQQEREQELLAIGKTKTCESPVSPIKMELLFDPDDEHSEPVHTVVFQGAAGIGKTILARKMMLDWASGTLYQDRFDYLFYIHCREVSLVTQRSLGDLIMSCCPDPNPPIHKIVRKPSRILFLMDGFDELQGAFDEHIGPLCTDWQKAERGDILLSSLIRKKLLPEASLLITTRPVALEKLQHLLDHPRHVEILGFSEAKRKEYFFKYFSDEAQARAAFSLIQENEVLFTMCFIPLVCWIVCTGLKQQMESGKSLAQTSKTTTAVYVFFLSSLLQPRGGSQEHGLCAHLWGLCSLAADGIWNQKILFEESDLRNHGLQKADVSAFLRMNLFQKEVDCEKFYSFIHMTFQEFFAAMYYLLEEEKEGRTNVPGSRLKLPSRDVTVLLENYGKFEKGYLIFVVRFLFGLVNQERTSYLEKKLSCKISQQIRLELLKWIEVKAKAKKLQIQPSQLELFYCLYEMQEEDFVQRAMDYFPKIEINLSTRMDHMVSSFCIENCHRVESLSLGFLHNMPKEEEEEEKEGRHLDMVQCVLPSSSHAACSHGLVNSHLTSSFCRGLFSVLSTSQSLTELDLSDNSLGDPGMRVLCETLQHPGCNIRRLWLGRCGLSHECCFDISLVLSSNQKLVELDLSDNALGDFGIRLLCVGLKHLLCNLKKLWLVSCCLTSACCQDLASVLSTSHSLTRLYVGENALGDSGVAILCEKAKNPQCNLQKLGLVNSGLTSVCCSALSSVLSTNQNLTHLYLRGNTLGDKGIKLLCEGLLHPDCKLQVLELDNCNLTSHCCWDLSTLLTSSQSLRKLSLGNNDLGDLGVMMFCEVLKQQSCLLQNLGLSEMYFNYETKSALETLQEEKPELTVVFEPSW
Chain of NACHT, LRR and PYD domains-containing protein 3 (Mus musculus, UniProt Q8R4B8) (Q8R4B8 whole entry, the tested form may be a part): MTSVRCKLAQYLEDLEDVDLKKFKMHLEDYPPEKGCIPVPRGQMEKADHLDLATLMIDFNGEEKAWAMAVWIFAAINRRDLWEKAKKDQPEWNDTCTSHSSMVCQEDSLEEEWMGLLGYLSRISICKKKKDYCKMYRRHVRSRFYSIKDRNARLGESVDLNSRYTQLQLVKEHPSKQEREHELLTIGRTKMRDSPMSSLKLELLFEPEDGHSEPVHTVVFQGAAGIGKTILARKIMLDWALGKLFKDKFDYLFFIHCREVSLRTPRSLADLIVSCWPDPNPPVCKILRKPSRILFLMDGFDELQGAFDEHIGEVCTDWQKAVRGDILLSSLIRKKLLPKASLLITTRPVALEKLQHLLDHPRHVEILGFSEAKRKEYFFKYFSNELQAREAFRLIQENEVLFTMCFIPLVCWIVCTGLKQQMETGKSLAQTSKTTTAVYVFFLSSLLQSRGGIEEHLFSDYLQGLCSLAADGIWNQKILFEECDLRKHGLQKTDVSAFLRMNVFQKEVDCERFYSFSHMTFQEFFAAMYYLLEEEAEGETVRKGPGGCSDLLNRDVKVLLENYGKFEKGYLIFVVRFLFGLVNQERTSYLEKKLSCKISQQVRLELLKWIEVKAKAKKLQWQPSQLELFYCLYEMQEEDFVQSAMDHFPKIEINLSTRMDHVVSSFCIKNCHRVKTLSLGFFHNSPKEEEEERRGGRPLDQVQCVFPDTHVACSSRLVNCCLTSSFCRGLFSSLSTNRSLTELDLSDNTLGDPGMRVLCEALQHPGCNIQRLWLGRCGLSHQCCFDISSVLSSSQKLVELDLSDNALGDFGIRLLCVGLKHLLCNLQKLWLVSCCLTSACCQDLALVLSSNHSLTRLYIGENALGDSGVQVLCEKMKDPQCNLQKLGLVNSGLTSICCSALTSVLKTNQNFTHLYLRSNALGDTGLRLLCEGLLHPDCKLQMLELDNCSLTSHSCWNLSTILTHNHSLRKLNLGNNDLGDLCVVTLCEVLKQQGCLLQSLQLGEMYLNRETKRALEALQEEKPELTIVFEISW

SMILES: CC(C)c1nn(C(C)C(=O)Nc2ncc(F)cn2)c(=O)c2ccc(Br)cc12 (centres undefined)
IC50 [1]: 3660 nM

SMILES: CC(C)(O)c1coc(S(=O)(=O)NC(=O)Nc2c3c(cc4c2CCC4)CCC3)c1
IC50 [4]: 3930 nM

SMILES: O=C1Nc2c(ccc3c2CCC3)-c2ccnc(c2)OCCn2cc(F)c(n2)S(=O)(=O)N1
IC50 [5]: < 100 nM

SMILES: CN1CCC[C@@H](Nc2nnc(-c3ccc(C(F)(F)F)cc3O)c3c2nc(C2CC2)n3C)C1
EC50 [6]: < 20 nM

SMILES: Cc1cc(Br)cc(C)c1-n1cc2c(=O)[nH]c(N3C=COCC3)nc2n1
IC50 [7]: 3 nM

SMILES: C=CCN1C(=O)/C(=C2/C(=O)Nc3ccccc32)SC1=S
IC50 [8]: 500 nM

SMILES: CN1CCC[C@@H](Nc2nnc(-c3ccc(C(F)(F)F)cc3O)c3ncn(C)c23)C1
EC50 [6]: < 20 nM

SMILES: CCN1CCC[C@@H](Nc2nc3nc(-c4c(C)cc(Cl)cc4O)ccc3o2)C1
IC50 [9]: 0.4 nM

SMILES: Cc1cc2c(c(NC(=O)N[S+](=N)([O-])c3ccccc3)c1-c1ccnc(OC3CCN(C)CC3)c1)CCC2 (centres undefined)
IC50 [7]: < 250 nM

SMILES: CC(C)c1nn(CC(=O)Nc2ccc3nncn3c2)c(=O)cc1Oc1ccccc1
EC50 [10]: > 15000 nM

SMILES: Cn1cc(N(C[C@@H]2CCCO2)CS(=O)(=O)NC(=O)Nc2c3c(cc4c2CC4)CCC3)cn1
IC50 [11]: < 100 nM

SMILES: CN1CCC(Oc2cc(-c3ccc4c(c3NC(=O)NS(=O)(=O)C3CC3)CCC4)ccn2)CC1
IC50 [3]: ≤ 250 nM

SMILES: CC(C)OC(=O)C(Cc1ncccn1)OC(=O)N[C@@H](C)c1ccc(C(F)(F)F)cc1 (some centres undefined)
IC50 [12]: < 1000 nM

SMILES: CCNc1cc2c(=O)n(CC(=O)Nc3ccc4nncn4c3)nc(C(C)C)n2n1
IC50 [10]: 24 nM | IC50 [16]: 7040 nM

SMILES: CN1CCC[C@@H](Nc2nnc(-c3ccc(C(F)(F)F)cc3O)c3c2ncn3C)C1
EC50 [6]: < 20 nM

SMILES: CN1CCC[C@@H](Nc2nnc(-c3sccc3O)c3c2ncn3C)C1
EC50 [6]: > 1000 nM

SMILES: Cc1cc(Cl)cc(O)c1-c1ccc2oc(N[C@H]3CCCN4CCC[C@H]34)nc2n1
IC50 [9]: 0.6 nM

SMILES: CCc1c(-c2cccc(F)c2)c(C(C)C)nn(CC(=O)Nc2ncncc2F)c1=O
IC50 [1]: 35300 nM

SMILES: COc1ccc(Cl)cc1C(=O)NCCc1ccc(S(=O)(=O)NO)cc1
IC50 [17]: 8450 nM | logP [18]: 0.19

SMILES: CC(C)c1cc(NC(=O)NS(=O)(=O)C(c2cnn(C)c2)C2CCCN(C)C2)c(C(C)C)s1 (centres undefined)
IC50 [19]: < 100 nM

SMILES: CC(C)c1nn(CC(=O)Nc2ncncc2F)c(=O)c2cc(C(F)(F)F)ccc12
IC50 [1]: > 50000 nM

SMILES: CC(C)OC(=O)c1nc(Nc2c3c(cc4c2CCC4)CCC3)cs1
IC50 [20]: < 1000 nM

Results, then the compound that gave them:

bioavailability [2]: 76.7% | IC50 [3]: ≤ 1000 nM
SMILES: CCN1CCC(S(=O)(=O)NC(=O)Nc2c3c(cc4c2CCC4)CCC3)CC1 [SELNOFLAST]

IC50 [7]: ≤ 250 nM
SMILES: Cc1cc2c(c(NC(=O)NS(=O)(=O)c3cc(C(C)(C)O)co3)c1-c1ccnc(OC3CCN(C)CC3)c1)CCC2

IC50 [7]: ≤ 250 nM
SMILES: Cc1nc(C(C)C)c(NC(=O)NS(=O)(=O)c2cc(C(C)(C)O)co2)n1-c1ccncc1

EC50 [10]: 10 nM
SMILES: COC(=O)C12CC(NC(=O)Cn3nc(C(C)C)c(OCC(C)C)cc3=O)(C1)C2

EC50 [10]: 90 nM
SMILES: CC(C)c1nn(CC(=O)Nc2ccc3nncn3n2)c(=O)cc1N1CC2CC2C1 (centres undefined)

IC50 [13]: ≤ 250 nM
SMILES: O=C(Nc1c2c(cc3c1CCO3)CCC2)NS(=O)(=O)c1ccn(C2CC2)n1

IC50 [14]: < 1000 nM
SMILES: CC1(C)CCc2c1cc1c(c2NC(=O)NS(=O)(=O)c2ccnn2CCCB(O)O)CCC1

IC50 [15]: < 500 nM
SMILES: COC(C)(C)Cn1ccc(S(=O)(=O)c2nnc(Nc3c4c(cc5c3CCC5)CCC4)[nH]2)n1

IC50 [3]: < 1000 nM
SMILES: COc1cc(C)c(S(=O)(=O)NC(=O)Nc2c3c(cc4c2CCC4)CCC3)cn1
